molecular target: T1, human TRPA1 (Homo sapiens, UniProt O75762); test: Cell-based functional intracellular calcium ([Ca2+]i) assay, Fluo-4/Fluo-8, FlexStation, challenge with reference TRPA1 agonist (FFA, AITC or 4-HNE); settings: not given
T1 construct: expressed in transfected cells
How it was run: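 Doxycycline-induced (1 μg/ml) HEK293 expressing human TRPA1, with 5 μM ruthenium red during induction, loaded with Fluo-4 or Fluo-8 plus 2 mM probenecid; FlexStation read at 20-25° C, sometimes with 0.1% BSA.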

T1 sequence (O75762 whole entry): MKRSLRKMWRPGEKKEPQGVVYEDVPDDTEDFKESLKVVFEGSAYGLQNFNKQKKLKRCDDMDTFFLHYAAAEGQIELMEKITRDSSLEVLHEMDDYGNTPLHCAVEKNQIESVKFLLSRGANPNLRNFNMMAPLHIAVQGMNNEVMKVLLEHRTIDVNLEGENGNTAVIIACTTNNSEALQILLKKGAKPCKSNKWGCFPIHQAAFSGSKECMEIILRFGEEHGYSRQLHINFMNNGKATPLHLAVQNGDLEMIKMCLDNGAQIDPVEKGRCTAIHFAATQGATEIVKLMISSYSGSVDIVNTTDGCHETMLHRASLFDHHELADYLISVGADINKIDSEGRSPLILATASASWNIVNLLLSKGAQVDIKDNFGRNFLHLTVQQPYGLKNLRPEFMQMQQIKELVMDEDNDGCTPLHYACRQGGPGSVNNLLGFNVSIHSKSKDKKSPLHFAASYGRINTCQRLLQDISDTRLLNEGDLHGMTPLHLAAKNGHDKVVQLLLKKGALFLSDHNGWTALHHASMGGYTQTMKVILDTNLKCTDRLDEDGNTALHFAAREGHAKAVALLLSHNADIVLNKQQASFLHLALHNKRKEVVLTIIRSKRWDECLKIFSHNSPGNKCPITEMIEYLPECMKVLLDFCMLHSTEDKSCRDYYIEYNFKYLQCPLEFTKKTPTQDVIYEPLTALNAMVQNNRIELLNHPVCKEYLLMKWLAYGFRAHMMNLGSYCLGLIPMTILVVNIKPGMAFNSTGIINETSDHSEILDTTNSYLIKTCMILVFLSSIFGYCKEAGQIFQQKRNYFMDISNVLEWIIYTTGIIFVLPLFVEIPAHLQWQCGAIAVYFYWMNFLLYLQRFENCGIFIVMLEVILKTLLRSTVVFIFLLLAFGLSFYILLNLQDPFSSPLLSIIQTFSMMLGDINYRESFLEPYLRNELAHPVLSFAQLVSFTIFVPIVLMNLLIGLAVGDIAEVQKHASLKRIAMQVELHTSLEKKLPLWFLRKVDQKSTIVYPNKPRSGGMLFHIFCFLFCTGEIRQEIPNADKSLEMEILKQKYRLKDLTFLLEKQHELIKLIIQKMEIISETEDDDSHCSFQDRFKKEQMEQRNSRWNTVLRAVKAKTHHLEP

Structure (SMILES)	IC50
O=C(c1cc(-c2ccncc2)n(-c2ccc(F)cc2F)n1)N1CCC2(CC1)OCCO2 [Compound 154]	> 25 µM
O=C(c1cc(-c2cccnc2)n(-c2ccc(F)c(C(F)(F)F)c2)n1)N1C2CCC1CC(n1c(=O)[nH]c3ccc(F)c(F)c31)C2 (stereo not drawn) [Compound 331]	0.001 to 5 µM
O=C(c1cc(-c2ccncc2)n(-c2ccc3c(c2)OCO3)n1)N1CCC2(CC1)OCCO2 [Compound 157]	> 25 µM
O=C(c1cc(-c2ccncc2)n(-c2ccccc2)n1)N1CCC2(CC1)OCCO2 [Compound 31]	> 25 µM
O=C(c1cc(-c2cccnc2)n(-c2ccc(F)c(C(F)(F)F)c2)n1)N1C2CCC1CC1(C2)C(=O)NCN1c1ccc(F)cc1 (stereo not drawn) [Compound 333]	0.001 to 5 µM
CCCC1COC2(CCN(C(=O)c3cc(-c4ccncc4)n(-c4cnccn4)n3)CC2)O1 (stereo not drawn) [Compound 138]	> 25 µM
CCCC1COC2(CCN(C(=O)c3cc(-c4ccncc4)n(-c4ccc(F)c(F)c4)n3)CC2)O1 (stereo not drawn) [Compound 96]	> 25 µM
O=C(c1cc(-c2ccncc2)n(-c2ccc(F)c(F)c2)n1)N1CCC(N2C(=O)Cc3ccccc32)CC1 [Compound 76]	> 25 µM

same assay, conditions: HEK293 cells expressing human TRPA1; IC50 class after addition of reference TRPA1 agonist (FFA, AITC or 4-HNE); read-out: human TRPA1-HEK Activity

Structure (SMILES)	IC50
O=C(c1cc(-c2cccnc2)n(-c2ccc(I)c(C(F)(F)F)c2)n1)N1CCC2(CC1)C(=O)NCN2c1ccc(F)cc1 [Compound 326]	0.001 to 5 µM
CN1C(=O)NC2(CCN(C(=O)c3cc(-c4ccncc4)n(-c4ccc(F)c(F)c4)n3)CC2)C1=O [Compound 97]	> 25 µM
O=C(c1cc(-c2ccncc2)n(-c2ccccc2)n1)N1CCC(N2C(=O)OC[C@H]2c2ccccc2)CC1 [Compound 173]	> 25 µM
O=C(Nc1ccc2c(c1)COC2=O)c1cc(-c2ccncc2)n(-c2ccc(C(F)(F)F)c(F)c2)n1 [Compound 113]	> 25 µM
Cn1c(=O)oc2ccc(NC(=O)c3cc(-c4ccncc4)n(-c4ccccc4)n3)cc21 [Compound 39]	> 25 µM
O=C(c1cc(-c2ccncc2)n(-c2ccc3c(c2)OCO3)n1)N1CCC2(CC1)C(=O)NCN2c1ccccc1 [Compound 155]	> 25 µM
CN1C(=O)NC2(CCN(C(=O)c3cc(-c4ccncc4)n(-c4ccc(C(F)(F)F)cc4)n3)CC2)C1=O [Compound 75]	> 25 µM
O=C(c1cc(-c2cccnc2Cl)n(-c2ccc(C(F)(F)F)c(F)c2)n1)N1CCC2(CC1)C(=O)NCN2c1ccc(F)cc1 [Compound 317]	0.001 to 5 µM
O=C(c1cc(-c2cccnc2)n(-c2cc(F)c(F)c(F)c2)n1)N1CCC2(CC1)C(=O)NCN2c1ccc(F)c(F)c1 [Compound 254]	0.001 to 5 µM
O=C(c1cc(-c2ccncc2)n(-c2ccc(C(F)(F)F)c(F)c2)n1)N1CCC2(CC1)C(=O)NCN2c1ccc(F)cc1 [Compound 99]	0.001 to 5 µM
O=C(c1cc(-c2ccncc2)n(-c2ccc(C(F)(F)F)c(F)c2)n1)N1CCC2(CC1)C(=O)NCN2c1ccccc1 [Compound 161]	5 to 25 µM
O=C(c1cc(-c2ccncc2)n(-c2ccccc2)n1)N1CCC2(CC1)OCc1ccccc12 [Compound 170]	> 25 µM
O=C(c1cc(-c2cccnc2)n(-c2ccc(C(F)(F)F)cc2C(F)(F)F)n1)N1CCC2(CC1)C(=O)NCN2c1ccc(F)cc1 [Compound 322]	0.001 to 5 µM
CN1C(=O)NC2(CCN(C(=O)c3cc(-c4ccncc4)n(-c4cnccn4)n3)CC2)C1=O [Compound 139]	> 25 µM
O=C1Nc2ccc(Cl)cc2C2(CCN(C(=O)c3cc(-c4cccnc4)n(-c4ccc(F)c(C(F)(F)F)c4)n3)CC2)O1 [Compound 280]	0.001 to 5 µM
N#Cc1ccc(-n2nc(C(=O)N3CCC4(CC3)C(=O)NCN4c3ccc(F)c(F)c3)cc2-c2cccnc2)cc1F [Compound 216]	0.001 to 5 µM
O=C(c1cc(-c2ccncc2)n(-c2ccc(C(F)(F)F)c(F)c2)n1)N1CCN2C(=O)OC[C@@H]2C1 [Compound 115]	> 25 µM
Cc1cnc(-c2cc(C(=O)N3CCC4(CC3)C(=O)NCN4c3ccc(F)cc3)nn2-c2ccc(C(F)(F)F)cc2)c(C)n1 [Compound 52]	> 25 µM
O=C(Nc1ccc2c(c1)COC2=O)c1cc(-c2ccncc2)n(-c2cnccn2)n1 [Compound 134]	> 25 µM
O=C(c1cc(-c2ccncc2)n(-c2ccccc2)n1)N1CCC2(CCNC2=O)CC1 [Compound 13]	> 25 µM

Structure (SMILES)	IC50
O=C(c1cc(-c2cccnc2)n(-c2ccc(Cl)c(C(F)(F)F)c2)n1)N1CCC(n2c(=O)[nH]c3ccc(F)c(F)c32)CC1 [Compound 295]	0.001 to 5 µM
O=C(c1cc(-c2ccncc2)n(-c2ccc(F)c(F)c2)n1)N1CCC2(CC1)SCCS2 [Compound 85]	> 25 µM
O=C1CSC2(CCN(C(=O)c3cc(-c4ccncc4)n(-c4ccc(F)c(F)c4)n3)CC2)N1 [Compound 90]	> 25 µM
CC1CC(n2c(=O)[nH]c3ccc(F)c(F)c32)CC(C)N1C(=O)c1cc(-c2cccnc2)n(-c2cc(F)c(F)c(F)c2)n1 (stereo not drawn) [Compound 203]	> 25 µM
O=C(c1cc(-c2cccnc2)n(-c2ccc(F)c(C(F)(F)F)c2)n1)N1CCC2(CC1)C(=O)NCN2c1cc(Cl)c(F)c(Cl)c1 [Compound 332]	0.001 to 5 µM
O=C(c1nn(-c2ccc(F)c(C(F)(F)F)c2)c2c1CCc1ncccc1-2)N1CCC2(CC1)C(=O)NCN2c1ccc(F)cc1 [Compound 313]	0.001 to 5 µM
O=C(c1cc(-c2ccc(Cl)nc2)n(-c2ccc(C(F)(F)F)c(F)c2)n1)N1CCC2(CC1)C(=O)NCN2c1ccc(F)cc1 [Compound 238]	0.001 to 5 µM
O=C(c1cc(-c2cccnc2)n(-c2ccc(OC(F)(F)F)c(F)c2)n1)N1CCC2(CC1)C(=O)NCN2c1ccc(F)c(F)c1 [Compound 214]	0.001 to 5 µM
O=C1Nc2ccc(F)cc2C2(CCN(C(=O)c3cc(-c4cccnc4)n(-c4ccc(C(F)(F)F)c(F)c4)n3)CC2)O1 [Compound 230]	0.001 to 5 µM
Cn1c(=O)c(=O)n(C)c2cc(NC(=O)c3cc(-c4ccncc4)n(-c4ccc(C(F)(F)F)cc4)n3)ccc21 [Compound 69]	> 25 µM
N#Cc1ccc2c(c1)[nH]c(=O)n2C1CCN(C(=O)c2cc(-c3cccnc3)n(-c3ccc(C(F)(F)F)c(F)c3)n2)CC1 [Compound 228]	0.001 to 5 µM
O=C(c1cc(-c2ccncc2)n(-c2cnccn2)n1)N1CCC(c2nc3ccccc3o2)CC1 [Compound 129]	> 25 µM
O=C(c1cc(-c2ccncc2)n(-c2ccc(F)cc2F)n1)N1CCC(n2c(=O)[nH]c3ccccc32)CC1 [Compound 153]	> 25 µM
O=C1OC2(CCN(C(=O)c3cc(-c4ccncc4)n(-c4ccc(C(F)(F)F)nc4)n3)CC2)c2ccccc21 [Compound 123]	> 25 µM
O=C(c1cc(-c2ccncc2)n(-c2ccc(C(F)(F)F)cc2)n1)N1CCC2(CC1)C(=O)NCN2c1ccc(F)cc1 [Compound 55]	0.001 to 5 µM
CN1C(=O)COc2cc(NC(=O)c3cc(-c4ccncc4)n(-c4ccc(C(F)(F)F)cc4)n3)ccc21 [Compound 67]	> 25 µM
O=C(c1cc(-c2cccnc2)n(-c2c(Cl)cc(C(F)(F)F)cc2Cl)n1)N1CCC2(CC1)C(=O)NCN2c1ccc(F)c(F)c1 [Compound 219]	0.001 to 5 µM
Cn1c(=O)c(=O)n(C)c2cc(NC(=O)c3cc(-c4ccncc4)n(-c4ccc(C(F)(F)F)c(F)c4)n3)ccc21 [Compound 112]	> 25 µM
O=C(c1cc(-c2ccncc2)n(-c2ccccc2)n1)N1CCC(n2c(=O)[nH]c3ccccc32)CC1 [Compound 25]	> 25 µM
O=C1CSC2(CCN(C(=O)c3cc(-c4ccncc4)n(-c4ccc(C(F)(F)F)c(F)c4)n3)CC2)N1 [Compound 111]	> 25 µM

— patent US9951046B2, “TRPA1 modulators” (Algomedix, Inc., priority 2014, dated 2018)
